Reference: patent US20070037751A1, “Uses of secretagogues like ghrelin in cancer cachexia and for stimulating appetite” (priority 2003, published 2007)
Entries after “also recorded” stand apart in the source; their conditions may differ.

Legend:
[1] = infusion for 90 minutes, cancer cachexia patients; cited from earlier work
[2] = Daily subcutaneous ghrelin for 8 weeks in gastrectomised and sham-operated mice (Example 7); type: in vivo
Procedure: Mice were subjected to gastrectomy or to sham operation. Gastrectomy was carried out by resecting the glandular stomach (antrum and fundus), followed by anastomozing the duodenum and the rumen end-to-end. The mortality associated with gastrectomy was 10%. Some of the gastrectomised and sham-operated mice received a subcutaneous dose of ghrelin (12 nmol) daily for 8 weeks. Controls received saline. […] After 8 weeks the mice were killed by decapitation (16-18 h after the last injection). Blood was collected and plasma stored at −20° C. for measurement of ghrelin (see below). Lean tissue was analysed by dual energy x-ray absorptiometry (DXA) (PIXImus, Lunar Corporation, Madison, […]., USA). White adipose tissue (WAT) (mesenteric, retroperitoneal-renal, gonadal and inguinal) and intrascapular brown adipose tissue (BAT) was dissected out and weighed
(§1) Measurement of circulating ghrelin: If not otherwise stated, determination of circulating ghrelin was carried out on plasma from animals at sacrifice (end-point analysis). Immunoactive ghrelin was measured in 20 pi plasma with a radioimmunoassay (RIA) that uses an antiserum raised against acylated human ghrelin (Phoenix Pharmaceuticals); ^125I-labelled ghrelin-28 was used as a tracer a rat ghrelin-28 as standard. […] Plasma concentrations were expressed as pmol equivalents of rat ghrelin-28 per liter. Active (octanoylated) ghrelin was determined in 50 μl plasma using an enzyme linked immunosorbent assay (ELISA) kit (LINCO Research, St. Charles, Mo., USA).
Statistical analysis: Values are expressed as means±S.E.M. Differences were analyzed by the student t-test or by one-way analysis of variance (ANOVA), using Bonferroni's multiple comparison test. A p value of less than 0.05 was considered statistically significant.

growth hormone = assay: Plasma growth hormone before and after subcutaneous ghrelin in a cancer cachexia patient (Example 4); type: in vivo, human; details: before and after the two subcutaneous injections, 0.8 to 1.5 micrograms/kg twice daily, one patient
Procedure: (§2) The patient was treated with subcutaneous injections of 0.8 to 1.5 micrograms/kg ghrelin twice daily for 4 weeks. The injections were taken before meals.
Pharmacokinetic and pharmacodynamic assessment was performed at day 1 and 2 by blood sampling before and after each injection and measurement of plasma levels of growth hormone and active and total ghrelin.

[3] = continuous intravenous infusion for 270 minutes, 5 pmol/kg/min; cited from earlier work
[4] = Clinical follow-up of a cancer cachexia patient treated with ghrelin (Example 4); type: in vivo, human
Procedure: as §2
The patient was followed weekly by standard laboratory tests, Cachexia/anorexia and quality of life questionnaires, body-weight, body-composition analysis (DEXA-scan) and chest-x-ray or thorax-CT among others.

[5] = Plasma ghrelin after subcutaneous bolus injection of ghrelin in mice (Example 6); type: in vivo
Procedure: as §1, with “6+6 mice received 12 or 24 nmol” for “Measurement”, “of” for “of circulating ghrelin: If not otherwise stated, determination of circulating”, “by a subcutaneous bolus injection in the neck (corresponding to 400 and 800 nmol kg^−1, respectively). […]” for “was carried out on plasma from animals at sacrifice (end-point analysis).”, “μl” for “pi”

[6] = Pharmacokinetics of ghrelin formulations after subcutaneous administration in rats (Examples 9 and 10); type: in vivo, Sprague Dawley rats; set-up: Tmax: dose or concentration left out as unconfirmed; details: rat
Procedure: Two different types of liposomes were made containing dipalmitoyl DL-α-phosphatidylcholine (DPPC ) and a mixture of phosphatidylcholin and cholesterol (PC/Chol), respectively. The liposomes were prepared by dissolving and mixing the lipids in chloroform. Chloroform was removed overnight by rotation evaporation, and the resulting lipid film was first striped with ethanol (99,9%) and then left overnight in the rotation evaporator. The multilamellar liposomes were formed by hydration in HEPES-buffer (10 mM HEPES, 50 mM KCl, 1mM NaN3, pH=5,5) for at least 1 h. The hydration temperature was 51° C. (10° C. above the Tm of the phospholipids). Subsequently, the liposomes were sonicated for 30 sec every 10 min during one hour using a tip sonicator. One hundred nanometer unilamellar liposomes were made from the multilamellar liposomes by extrusion through 100 nm polycarbonate filters. Size measurements were performed by dynamic light scattering (DLS) using a Zetasizer 4 (Malvern, UK). Tm were determined by Differential Scanning Caleometry (DSC; MicroCal™ Incorporated). Ghrelin were added approximately 2 h before the administration of the formulation to the animals in doses of 60 μg per 500 μL
Intralipid 30% were purchased from the local Pharmacy on the Danish University Hospital Copenhagen (Rigshospitalet). 1000 mL contain: purified soybean oil 300 g, purified egg phospholipids 12 g, glycerol anhydrous 16.7 g, water for injection q.s. ad 1 000 mL. pH is adjusted with sodium hyroxide to pH approximately 7.5.
Animals: Thirty (30) male Sprague Dawley rats (aged 6-7 weeks; approximately 300 g; Charles River, Germany) were used. Upon arrival at the animal facility, they were housed 3 per cage for one week, and subsequently transferred to individual cages with access to food and water ad libitum.
After one week of singly housing, the rats were ready for experiments and were randomized into 5 weight-matched groups (6 pr. group):
All compounds were administered by subcutaneous administration (0.5 ml/300g rat)
On the experimental day (0800-0930), 15 minute prior to receiving the test dose, a 200 μl blood sample was drawn from the tail vein. At time point 0 a second blood sample was drawn and immediately after rats received an sc injection with test compound according to the groups listed above. Seven more samples were drawn (volume 200 μl) at time points: 15, 30, 45, 60, 90, 120 and 240 minutes post injection according to study outline. The total blood volume drawn was 1800 μl (approx. 10% of total blood volume).
Blood samples were kept on ice until plasma separation could be performed. After centrifugation (4000 rpm for 10 minutes) plasma was transferred to vials/tubes containing 5 μL 1N HCl og 5 μL 2mg/mL solution of Phenylmethylsulfonyl fluoride in isopropanol.
The active (acylated) ghrelin in the plasma samples was measured by use of a RIA assay (Linco Research, Inc) according to the manufactures protocol.

[7] = Clinical follow-up of a cancer cachexia patient treated with ghrelin (Example 4); type: in vivo, human; details: weekly IV injections, before the subcutaneous treatment
[8] = gastrectomised mice, 12 nmol sc daily, 8 weeks
[9] = subcutaneous 0.8 to 1.5 micrograms/kg twice daily for 4 weeks, one patient
[10] = ghrelin (200 mg/kg) in a buffer

## CCCCCCCC(=O)OC[C@H](NC(=O)[C@H](CO)NC(=O)CN)C(=O)N[C@@H](Cc1ccccc1)C(=O)N[C@@H](CC(C)C)C(=O)N[C@@H](CO)C(=O)N1CCC[C@H]1C(=O)N[C@@H](CCC(=O)O)C(=O)N[C@@H](Cc1cnc[nH]1)C(=O)N[C@@H](CCC(N)=O)C(=O)N[C@@H](CCCNC(=N)N)C(=O)N[C@H](C(=O)N[C@@H](CCC(N)=O)C(=O)N[C@@H](CCC(N)=O)C(=O)N[C@@H](CCCNC(=N)N)C(=O)N[C@@H](CCCCN)C(=O)N[C@@H](CCC(=O)O)C(=O)N[C@@H](CO)C(=O)N[C@@H](CCCCN)C(=O)N[C@@H](CCCCN)C(=O)N1CCC[C@H]1C(=O)N1CCC[C@H]1C(=O)N[C@@H](C)C(=O)N[C@@H](CCCCN)C(=O)N[C@@H](CC(C)C)C(=O)N[C@@H](CCC(N)=O)C(=O)N1CCC[C@H]1C(=O)N[C@@H](CCCNC(=N)N)C(=O)O)C(C)C [ghrelin]
[1]
  increase of food intake: 30%
[2]; 12 nmol sc daily for 8 weeks, 16-18 h after the last injection
  plasma ghrelin concentration 16-18 h after injection: elevated
[2]; [8]
  amount of fat (fat depots): normalized the fat depots
  amount of lean tissue (lean body mass, DXA): reversed the effect; also recorded: normalized
  body weight raised: 8%
[2]; sham-operated mice, 12 nmol sc daily, 8 weeks
  lean body mass, ghrelin versus saline: no difference
Growth hormone
  increase in plasma growth hormone levels: more than 5 fold
[3]
  food intake: increase in food intake
[4]; mesothelioma, during the subcutaneous ghrelin treatment, 4 weeks
  tumor progression (CT-scans): did not progress
[4]; subcutaneous 0.8 to 1.5 micrograms/kg twice daily before meals for 4 weeks, one patient
  body weight and body composition: stable body weight and body composition
[4]; [9]
  ability to eat meals: able to eat full plates of meals and finish these; also recorded: increased objective hunger and ability to eat meals
  hunger: did not feel more intensified hunger; also recorded: increased objective hunger
[4]; subcutaneous treatment, 4 weeks
  adverse effects: no significant adverse effects
[4]; subcutaneous treatment, weekly standard laboratory tests
  lab values: did not show a substantial difference
[5]; 12 nmol sc, 6 h
  plasma ghrelin 6 h after injection: still elevated
[5]; 12 nmol sc, 6 h, n=4
  plasma concentration of active (octanoylated) ghrelin 6 h after injection: remained high
[5]; 12 nmol sc, n=4
  plasma concentration of active (octanoylated) ghrelin (ELISA): greatly elevated
[5]; 12 and 24 nmol sc, n=6 in each group
  plasma ghrelin concentration (RIA, octanoylated and des-octanoylated): raised
[6]; [10]
  decrease of plasma concentration in the 15 min after the maximum (time point 30 min): approximately 30%
  further decrease of plasma concentration in the following 15 min (time point 45): ~60%
  increase in active ghrelin in plasma: approximately 10 fold
  plasma level of active ghrelin after 120 min: slightly increased
  plasma level of active ghrelin after 240 min: back to basal level
[6]; male, Sprague Dawley, plasma, sc, ghrelin in a buffer, read-out: time of maximal plasma concentration of ghrelin (converted)
  Tmax: 15 min
[7]
  response to ghrelin treatment: responded well
